Measurements published in patent publication US20120029177A1, “HETEROCYCLE-AMINO ACID DERIVATIVES FOR TARGETING CANCER TISSUE AND RADIOACTIVE OR NON-RADIOACTIVE LABELED COMPOUNDS THEREOF” (SNU R&DB FOUNDATION, priority 2009, published 2012).
Values belong to the compound of their own block, whether it stands above or below them.

Key:
[1] = test system: SNU-C4 xenografted nude mice; assay: Biodistribution study in SNU-C4 xenografted nude mice after intravenous injection; type: in vivo, mouse; details: for % ID/g Tumor: SNU-C4 tumor; for tumor uptake compared with the control heterocyclic compound (in words): SNU-C4 xenografted nude mice, 10 min to 2 hr
Protocol: Human colon cancer cell line SNU-C4 was cultured in RPMI1640 media containing 10% fetal bovine serum and harvested using trypsin. The cells were washed using 10 mL PBS and centrifugation at 3,000 rpm. Each nude mouse was injected with 2×10^5 cells/0.1 mL on the right shoulder subcutaneously. On 13 days post-injection, each 10 μCi/0.1 mL of ^68Ga labeled agent was injected into the xenografted mice through the tail vein. The injected mice were sacrificed at 10 min, 30 min, 1 hr, and 2 hr, cancer, blood, muscle, heart, liver, spleen, stomach, intestine, and bone were obtained, weighed, and their radioactivities were counted. The results were expressed as percentages of injected dose per gram tissue (% ID/g).

CT-26 cells = assay: In vitro cell uptake, CT-26 (FIG. 1b); type: cell-based, mouse; details: controls ^68Ga-DO2A, ^68Ga-DO3A
Protocol: (§1) Human colon cancer cell line SNU-C4 was purchased from Korea Cell Line Bank (KCLB). Human thyroid cell line ARO, human liver cancer cell line Hep3B, human glioma cell line U251MG and U87MG, and mouse colon cell line CT-26 were purchased from American Type Culture Collection (ATCC). SNU-C4 and ARO were culture in RPMI1640 (Welgene Inc., Korea) and Hep3B, U251 MG, U87MG, and CT-26 were cultured in DMEM (Welgene Inc., Korea). Penicillin, streptomycin and amphotericin B (10,000 IU/mL, 10 mg/mL and 25 μg/mL, respectively, Mediatech Inc., U.S.A.) 1% mixture and fetal bovine serum (Welgene Inc., Korea) were added to all cell culture media. Cell culture was done in 37° C. incubator with supply of 5% CO2.
(§2) About 1.8×10^5 cells/mL CT-26 and 1.2×10^5 cells/mL U87MG were put into 24-well incubation plate and incubated for 20 hr. When the each well was about 80% confluent with cells, 296 kBq/0.5 mL of ^68Ga labeled agent was added to each well. Culture supernatants were discarded at each time point and cells were washed with ice-cooled Hank's balanced salt solution (HBSS, pH7.3, Gibco, U.S.A.) 2 times. The cells were dissolved by 0.5% sodium dodecylsulfate (SDS), recovered and counted using a gamma counter (Packard, Can berra Co., U.S.A.). Total protein amount in each sample was measured by bicinchonic acid (BCA, Pierce, U.S.A.) method.

[2] = test system: SNU-C4 xenografted nude mice; assay: PET imaging of tumor xenografted mice; type: in vivo, mouse; details: PET at 1 and 2 hr post-injection, FIG. 2
Protocol: Human colon cancer cell line SNU-C4 was cultured in RPMI1640 media containing 10% fetal bovine serum and harvested using trypsin. The cells were washed using 10 mL PBS and centrifugation at 3,000 rpm. Each nude mouse was injected with 2×10^5 cells/0.1 mL on the right shoulder subcutaneously. On 14 days post-injection, each 10 μCi/0.1 mL of ^68Ga labeled agent was injected into the xenografted mice through the tail vein. The injected mice were anesthetized using 2% isoflurane, PET images were obtained at 1 and 2 hr post-injection using rodent R4, microPET scanner (Concorde Microsystem Inc.). The images were analyzed using ASIPro software (Concorde Microsystem Inc.).

U87MG cells = assay: In vitro cell uptake, U87MG (FIG. 1a); type: cell-based, human; details: controls ^68Ga-DOTA, ^68Ga-NOTA
Protocol: as §1, §2

[3] = 10 min after intravenous injection
[4] = 30 min after intravenous injection
[5] = 1 hr after intravenous injection
[6] = 2 hr after intravenous injection

% ID/g Tumor [1, 3]: 3.22 ± 0.90 % ID/g | % ID/g Tumor [1, 4]: 2.49 ± 0.40 % ID/g | % ID/g Tumor [1, 5]: 2.44 ± 0.46 % ID/g | % ID/g Tumor [1, 6]: 2.98 ± 0.58 % ID/g | tumor uptake compared with the control heterocyclic compound (in words) [1]: higher and increasing by time | % ID/g Blood [1, 3]: 11.12 ± 0.49 % ID/g | % ID/g Blood [1, 4]: 8.35 ± 0.29 % ID/g | % ID/g Blood [1, 5]: 7.97 ± 1.29 % ID/g | % ID/g Blood [1, 6]: 6.07 ± 1.13 % ID/g | % ID/g Bone [1, 3]: 4.06 ± 0.44 % ID/g | % ID/g Bone [1, 4]: 3.63 ± 0.49 % ID/g | % ID/g Bone [1, 5]: 4.73 ± 0.69 % ID/g | % ID/g Bone [1, 6]: 5.00 ± 2.41 % ID/g | % ID/g Heart [1, 3]: 2.70 ± 0.18 % ID/g | % ID/g Heart [1, 4]: 1.80 ± 0.22 % ID/g | % ID/g Heart [1, 5]: 1.69 ± 0.40 % ID/g | % ID/g Heart [1, 6]: 1.30 ± 0.40 % ID/g | % ID/g Intestine [1, 3]: 2.48 ± 0.13 % ID/g | % ID/g Intestine [1, 4]: 1.74 ± 0.14 % ID/g | % ID/g Intestine [1, 5]: 1.87 ± 0.33 % ID/g | % ID/g Intestine [1, 6]: 4.38 ± 1.14 % ID/g | % ID/g Kidney [1, 3]: 60.06 ± 14.07 % ID/g | % ID/g Kidney [1, 4]: 9.10 ± 2.19 % ID/g | % ID/g Kidney [1, 5]: 4.82 ± 0.99 % ID/g | % ID/g Kidney [1, 6]: 6.06 ± 2.27 % ID/g | % ID/g Liver [1, 3]: 2.58 ± 0.07 % ID/g | % ID/g Liver [1, 4]: 2.30 ± 0.13 % ID/g | % ID/g Liver [1, 5]: 2.35 ± 0.25 % ID/g | % ID/g Liver [1, 6]: 2.52 ± 0.41 % ID/g | % ID/g Lung [1, 3]: 13.60 ± 2.37 % ID/g | % ID/g Lung [1, 4]: 9.35 ± 1.00 % ID/g | % ID/g Lung [1, 5]: 8.40 ± 1.17 % ID/g | % ID/g Lung [1, 6]: 8.04 ± 0.83 % ID/g | % ID/g Muscle [1, 3]: 3.52 ± 0.42 % ID/g | % ID/g Muscle [1, 4]: 2.03 ± 0.41 % ID/g | % ID/g Muscle [1, 5]: 1.38 ± 0.39 % ID/g | % ID/g Muscle [1, 6]: 1.33 ± 0.48 % ID/g | % ID/g Spleen [1, 3]: 2.59 ± 0.30 % ID/g | % ID/g Spleen [1, 4]: 2.33 ± 0.15 % ID/g | % ID/g Spleen [1, 5]: 2.33 ± 0.44 % ID/g | % ID/g Spleen [1, 6]: 2.19 ± 0.35 % ID/g | % ID/g Stomach [1, 3]: 1.97 ± 0.18 % ID/g | % ID/g Stomach [1, 4]: 1.53 ± 0.17 % ID/g | % ID/g Stomach [1, 5]: 1.53 ± 0.37 % ID/g | % ID/g Stomach [1, 6]: 11.42 ± 5.04 % ID/g
Compound: N[C@@H](CN1CCN(CC(=O)[O-])CCN(CC(=O)[O-])CCN(CC(=O)[O-])CC1)C(=O)O.[68Ga+3] (stereo in doubt) [^68Ga-DO3A-ala]
tumor cell uptake versus control agents (CT-26 cells): significantly increase tumor cell uptakes | tumor uptake in PET images [2]: high tumor uptakes

% ID/g Tumor [1, 3]: 3.33 ± 0.58 % ID/g | % ID/g Tumor [1, 4]: 2.23 ± 0.64 % ID/g | % ID/g Tumor [1, 5]: 0.93 ± 0.22 % ID/g | % ID/g Tumor [1, 6]: 0.66 ± 0.25 % ID/g | % ID/g Blood [1, 3]: 7.87 ± 1.11 % ID/g | % ID/g Blood [1, 4]: 2.63 ± 0.11 % ID/g | % ID/g Blood [1, 5]: 1.30 ± 0.28 % ID/g | % ID/g Blood [1, 6]: 0.65 ± 0.11 % ID/g | % ID/g Bone [1, 3]: 2.52 ± 0.64 % ID/g | % ID/g Bone [1, 4]: 1.20 ± 0.17 % ID/g | % ID/g Bone [1, 5]: 0.90 ± 0.12 % ID/g | % ID/g Bone [1, 6]: 0.70 ± 0.26 % ID/g | % ID/g Heart [1, 3]: 2.19 ± 0.47 % ID/g | % ID/g Heart [1, 4]: 0.78 ± 0.07 % ID/g | % ID/g Heart [1, 5]: 0.43 ± 0.10 % ID/g | % ID/g Heart [1, 6]: 0.15 ± 0.05 % ID/g | % ID/g Intestine [1, 3]: 1.91 ± 0.48 % ID/g | % ID/g Intestine [1, 4]: 0.74 ± 0.11 % ID/g | % ID/g Intestine [1, 5]: 0.52 ± 0.10 % ID/g | % ID/g Intestine [1, 6]: 0.40 ± 0.10 % ID/g | % ID/g Kidney [1, 3]: 50.94 ± 18.62 % ID/g | % ID/g Kidney [1, 4]: 44.79 ± 11.99 % ID/g | % ID/g Kidney [1, 5]: 67.43 ± 16.10 % ID/g | % ID/g Kidney [1, 6]: 48.79 ± 20.36 % ID/g | % ID/g Liver [1, 3]: 1.57 ± 0.22 % ID/g | % ID/g Liver [1, 4]: 0.80 ± 0.12 % ID/g | % ID/g Liver [1, 5]: 0.56 ± 0.06 % ID/g | % ID/g Liver [1, 6]: 0.39 ± 0.10 % ID/g | % ID/g Muscle [1, 3]: 2.12 ± 0.64 % ID/g | % ID/g Muscle [1, 4]: 0.90 ± 0.11 % ID/g | % ID/g Muscle [1, 5]: 0.47 ± 0.16 % ID/g | % ID/g Muscle [1, 6]: 0.14 ± 0.03 % ID/g | % ID/g Spleen [1, 3]: 1.64 ± 0.26 % ID/g | % ID/g Spleen [1, 4]: 0.74 ± 0.10 % ID/g | % ID/g Spleen [1, 5]: 0.47 ± 0.04 % ID/g | % ID/g Spleen [1, 6]: 0.33 ± 0.08 % ID/g | % ID/g Stomach [1, 3]: 2.63 ± 0.63 % ID/g | % ID/g Stomach [1, 4]: 0.90 ± 0.17 % ID/g | % ID/g Stomach [1, 5]: 0.45 ± 0.10 % ID/g | % ID/g Stomach [1, 6]: 0.21 ± 0.05 % ID/g
Compound: NC(CNC(=O)CN1CCN(CC(=O)[O-])CCN(CC(=O)[O-])CCN(CC(=O)[O-])CC1)C(=O)O.[68Ga+3] (stereo not drawn) [^68Ga-DOTA-ala]
tumor uptake compared with the control heterocyclic compound (in words) [1]: higher than that of ^68Ga-DOTA at all time point | tumor cell uptake versus control agents (U87MG cells): significantly increase tumor cell uptakes | tumor uptake in PET images [2]: high tumor uptakes
